Data published in patent US8530669B2, “Ester compound and use thereof” (Sumitomo Chemical Company, Limited, priority 2010, dated 2013).

What was measured:
[1] = system: American cockroaches (Periplaneta Americana); assay: Test Example 1: oil solution spray knock-down test on American cockroaches; assay type: in vivo; details: adult American cockroaches, 1.5 ml of 0.1% (w/v) oil solution sprayed, repeated twice
Experimental: (§1) Zero point one (0.1) part of the compound of the present inventions (1), (2) and (4) was dissolved in 10 parts of isopropyl alcohol and the solution was mixed with 89.9 parts of deodorized kerosene to prepare a 0.1% (w/v) oil solution.
(§2) Six adult American cockroaches (Periplaneta Americana, 3 males and 3 females) were released in a test container (diameter 12.5 cm, 10 cm high, the bottom face is made of 16 mesh metallic wire), the inner face on which butter was applied, and the container was set at the bottom of a test chamber (bottom face: 46 cm×46 cm, height: 70 cm). Each 1.5 ml of the oil solution of the compound of the present invention (1), (2) and (4) was sprayed using a spray gun at a pressure of 0.4 kg/cm^2 from 60 cm higher than the upper face of the container. Thirty seconds after the spraying, the container was pulled out from the chamber. After a prescribed time, the number of knocked-down cockroaches was counted and a knock-down ratio was determined (repeated twice). The knocked-down ratio was calculated by the following equation. Knocked-down ratio(%)=(Number of knocked-down cockroaches/Number of test cockroaches)×100
For comparison, the test was conducted in the same manner as the above, except for using 2,5-dioxo-3-(2-propynyl)imidazolidinylmethyl=(1R)-cis-3-((Z)-2-cyano-2-methoxyethenyl)-2,2-dimethylcyclopropane carboxylate (compound described in JP-A-60-16962, hereinafter referred to as the comparative compound (1)) represented by the following formula: […]

[2] = system: American cockroaches (Periplaneta Americana); assay: Test Example 7: oil solution spray knock-down test on American cockroaches; assay type: in vivo; details: adult American cockroaches, 1.5 ml of 0.1% (w/v) oil solution sprayed, repeated twice
Experimental: as §1
as §2, with “Three minutes after spraying,” for “After a prescribed time,”

[3] = system: German cockroaches (Blattella germanica); assay: Test Example 8: oil solution spray knock-down test on German cockroaches; assay type: in vivo; details: adult German cockroaches, 1.5 ml of 0.00625% (w/v) oil solution sprayed, repeated once
Experimental: Zero point zero zero six two five (0.00625) part of the compound of the present inventions (1), (2), (3), (4) and (5) was dissolved in 10 parts of isopropyl alcohol and the solution was mixed with 89.99375 parts of deodorized kerosene to prepare a 0.00625% (w/v) oil solution.
Ten adult German cockroaches (Blattella germanica, 5 males and 5 females) were released in a test container (diameter 8.75 cm, 7.5 cm high, the bottom face is made of 16 mesh metallic wire), the inner face on which butter was applied, and the container was set at the bottom of a test chamber (bottom face: 46 cm×46 cm, height: 70 cm).
Each 1.5 ml of the oil solution of the compound of the present invention (1), (2), (3), (4) and (5) was sprayed using a spray gun at a pressure of 0.4 kg/cm^2 from 60 cm higher than the upper face of the container. Thirty seconds after the spraying, the container was pulled out from the chamber. Two minutes after spraying, the number of knocked-down cockroaches was counted and a knock-down ratio was determined (repeated once). A knocked-down ratio was calculated by the following equation. Knocked-down ratio(%)=(Number of knocked-down cockroaches/Number of test cockroaches)×100 The results (2 minutes after spraying) are shown in Table 5.

[4] = system: common mosquitoes (Culex pipens pallens); assay: Test Example 2: oil solution spray knock-down test on common mosquitoes in glass chamber; assay type: in vivo; details: adult female Culex pipens pallens, 0.025% (w/v) oil solution sprayed into 70 cm cubic glass chamber, 1 minute after spraying
Experimental: Zero point zero two five (0.025) part of the compound of the present invention (1) and (4) was dissolved in 10 parts of isopropyl alcohol, and the solution was mixed with 89.975 parts of deodorized kerosene to prepare a 0.025% (w/v) oil solution.
(§3) Ten adult female common mosquitoes (Culex pipens pallens) were released in a cubic glass chamber having each side of 70 cm. The oil solution of the compound of the present invention (1) and (4) was sprayed into the chamber through a small window on the side of the chamber using a spraying gun at a pressure of 0.9 kg/cm^2. One minutes after spraying, the number of knocked-down mosquitoes was counted and a knock-down ratio was determined. A knocked-down ratio was calculated by the following equation. Knocked-down ratio(%)=(Number of knocked-down mosquitoes/Number of test mosquitoes)×100

[5] = system: houseflies (Musca domestica); assay: Test Example 3: oil solution spray knock-down test on houseflies in glass chamber; assay type: in vivo; details: adult Musca domestica, 0.7 ml of 0.025% (w/v) oil solution sprayed into 70 cm cubic glass chamber
Experimental: Zero point zero two five (0.025) part of the compound of the present invention (1) and (4) was dissolved in 10 parts of isopropyl alcohol, and the solution was mixed with […] parts of deodorized kerosene to prepare a 0.025% (w/v) oil solution.
as §3, with “houseflies (Musca domestica)” for “female common mosquitoes (Culex pipens pallens)”, “cm, and 0.7 ml of the” for “cm. The”, “Five” for “One”, “flies” for “mosquitoes”, “flies/Number” for “mosquitoes/Number”, “flies)×100” for “mosquitoes)×100”

| Compound | Knock-down ratio (%) 2 minutes after spraying [1] [%] | Knock-down ratio (%) 3 minutes after spraying [2] [%] | Knock-down ratio (%) 2 minutes after spraying [3] [%] | melting point [°C] | Knock-down ratio (%) 1 minutes after spraying [4] [%] | Knock-down ratio (%) 5 minutes after spraying [5] [%] |
| --- | --- | --- | --- | --- | --- | --- |
| C#CCn1c(C)nn(COC(=O)[C@@H]2[C@@H](/C=C(\C#N)SC)C2(C)C)c1=O [compound of the present invention (2), 3-methyl-5-oxo-4-(2-propynyl)-4,5-dihydro-[1,2,4]triazolylmethyl=(1R)-trans-3-[(1E)-2-cyano-2-(methylthio)ethenyl]-2,2-dimethylcyclopropane carboxylate] | 92 | 100 | 100 | 104 to 105 | – | – |
| C#CCn1c(C)nn(COC(=O)[C@@H]2[C@@H](C=C(C#N)SCC)C2(C)C)c1=O (relative stereo) [compound of the present invention (5), 3-methyl-5-oxo-4-(2-propynyl)-4,5-dihydro-[1,2,4]triazolylmethyl=(1R)-trans-3-[(1EZ)-2-cyano-2-(ethylthio)ethenyl]-2,2-dimethylcyclopropane carboxylate] | – | – | 90 | – | – | – |
| C#CCn1c(C)nn(COC(=O)[C@@H]2[C@@H](C=C(C#N)SCC)C2(C)C)c1=O [compound of the present invention (3), 3-methyl-5-oxo-4-(2-propynyl)-4,5-dihydro-[1,2,4]triazolylmethyl=(1R)-trans-3-[(1EZ)-2-cyano-2-(ethylthio)ethenyl]-2,2-dimethylcyclopropane carboxylate] | – | – | 100 | – | – | – |
| C#CCN1CC(=O)N(COC(=O)[C@@H]2[C@H](/C=C(/C#N)OC)C2(C)C)C1=O [comparative compound (1), 2,5-dioxo-3-(2-propynyl)imidazolidinylmethyl=(1R)-cis-3-((Z)-2-cyano-2-methoxyethenyl)-2,2-dimethylcyclopropane carboxylate, reference compound] | 42 | – | – | – | – | – |
| C#CCn1c(C)nn(COC(=O)[C@@H]2[C@@H](/C=C(\C#N)SCC)C2(C)C)c1=O [compound of the present invention (4), 3-methyl-5-oxo-4-(2-propynyl)-4,5-dihydro-[1,2,4]triazolylmethyl=(1R)-trans-3-[(1E)-2-cyano-2-(ethylthio)ethenyl]-2,2-dimethylcyclopropane carboxylate] | 100 | 100 | 100 | – | 100 | 80 |
| C#CCn1c(C)nn(COC(=O)[C@@H]2[C@@H](C=C(C)C)C2(C)C)c1=O [comparative compound (2), 3-methyl-5-oxo-4-(2-propynyl)-4,5-dihydro-[1,2,4]triazolylmethyl=(1R)-trans-3-(2-methyl-1-propenyl)-2,2-dimethylcyclopropane carboxylate, reference compound] | 33 | – | – | – | – | – |
| C#CCn1c(C)nn(COC(=O)[C@@H]2[C@@H](C=C(C#N)SC)C2(C)C)c1=O [compound of the present invention (1), 3-methyl-5-oxo-4-(2-propynyl)-4,5-dihydro-[1,2,4]triazolylmethyl=(1R)-trans-3-[(1EZ)-2-cyano-2-(methylthio)ethenyl]-2,2-dimethylcyclopropane carboxylate] | 100 | 100 | 100 | – | 95 | 80 |
